Tests used:
[1] = test system: Piezo1 currents in N2A cells; experiment: Pillar array patch-clamp analysis of mechanotransduction in N2A cells; assay type: cell-based
Method: (§1) Whole-cell, patch-clamp recordings were conducted as previously described 5-7, using patch pipettes with a tip resistance of 3-6 MΩ, filled with a solution of: 110 mM KCl, 10 mM NaCl, 1 mM MgCl2, 1 mM EGTA and 10 mM HEPES, adjusted to pH 7.3 with KOH. (For experiments on DRG neurons 10 mM QX-314 was added to the pipette to block voltage-gated sodium channels 8 Extracellular solutions contained 140 mM NaCl, 4 mM KCl, 2 mM CaCl2, 1 mM MgCl2, 4 mM glucose, 10 mM HEPES, adjusted to pH 7.4 with NaOH. A Zeiss 200 inverted microscope and an EPC-10 amplifier in combination with Patchmaster software was used, data was analyzed using Fitmaster software (HEKA Electronik GmbH, Germany). Pipette and membrane capacitance were compensated using the auto function of Patchmaster, series resistance was compensated by at least 60% to minimize voltage errors. Mechanical stimuli were applied using a polished glass probe driven by the MM3A micromanipulator (Kleindiek Nanotechnik, Germany). Mechanical stimuli were applied by either; indenting the cell soma or by culturing cells on elastomeric pillar arrays and applying the stimulus to the cell-substrate interface by deflecting an individual pilus.
Briefly, elastomeric pillar arrays of defined dimensions were cast in PDMS with an elasticity of 2 MPa. Cells cultured on these arrays were monitored using whole-cell patch-clamp whilst a glass probe was used to apply repeated deflections (of differing magnitudes) to an individual pilus directly beneath the cell. Images were obtained of the pilus before and after deflection and images were analyzed off-line to determine the exact deflection for each data point. Images were obtained using a 40×LD objective and a CoolSNAP EZ CCD camera. Images were analyzed off-line using Igor software (WaveMetrics, USA). The collection of stimulus-response data using pillar arrays generates data sets with variation in both x and y. In order to effectively compare groups for each cell studied we binned response data by stimulus size in the following bins: 0-10, 10-50, 50-100, 100-250, 250-500, 500-1000. For each cell, current amplitudes within each bin were averaged and then bins averaged between cells—we then tested for significance by testing whether the current amplitude for a given stimulation range (i.e. bin) differed between samples. A power analysis was used to determine that moderate to strong effects between samples could be detected with a sample size >4. Data sets were in excess of this number. To distinguish mechanoreceptors from nociceptors in the mixed population of acutely prepared DRG neurons, the shape of the generated action potential (AP) was used. […] For quantitative analysis of mechanosensitivity we measured responses in the most sensitive sub-population of mechanoreceptors, previously defined as Typell mechanoreceptors (Poole et al., 2014). This population was identified as those cells with APs lacking a hump in the falling phase and a full width at half maximum (FWHM) of at least 0.7 ms, (average, ±s.e.m.: 0.9±0.04 ms)
Endogenously expressed STOML3 in N2A cells is required to maintain Piezo channel sensitivity to membrane deflection^2. By precisely deflecting defined areas of the membrane-substrate interface using a pillar array we could activate Piezo1 currents in N2A cells with displacements ranging from 100-1000 nm (FIG. 2a). Both OB-1 and OB-2 reduced the sensitivity of mechanosensitive currents to pillar deflection (FIG. 2b). […]

[2] = test system: mechanically gated currents in mechanoreceptors; experiment: Pillar array analysis of mechanically gated currents in DRG mechanoreceptors; assay type: cell-based, mouse; settings: for sensitivity of mechanically gated currents in mechanoreceptors: acutely cultured mouse sensory neurons; for pillar deflections at which mechanically-gated currents are significantly inhibited: mechanoreceptors, FIG. 2e
Method: HEK-293 cells (passage numbers 4-20) were cultured in DMEM plus 10% fetal calf serum (FCS). Neuro2A (N2A) cells were cultured in DMEM/Opti-MEM media plus 10% FCS.—Sensory DRG neurons were isolated from 4 week old Mus musculus (C57Bl/6). Approximately 20 ganglia were collected from each mouse and individual cells were isolated by treating ganglia with […] collagenase IV for 30 min, followed by 1 ml of 0.05% trypsin, in PBS, for 5-20 min at 37° C. Enzyme-treated ganglia, in DMEM/F-12 media containing 10% Horse Serum (HS), were disrupted by gently passaging through a 20 G needle; cells were then collected by centrifugation (1000 rpm, 3 min), washed and finally re-suspended in DMEM/F-12, 10% HS media (at no point were neurotrophins added to the culture). Sensory neurons were then seeded on EHS-laminin coated substrate and cultured overnight. Experiments involving isolated sensory neurons were conducted within 24-36 hours of isolation of the cells.
as §1, with “Mechanical stimuli were applied by either; indenting the cell soma or by culturing cells on elastomeric pillar arrays and applying the stimulus to the cell-substrate interface by deflecting an individual pilus.” left out
Briefly, elastomeric pillar arrays of defined dimensions were cast in PDMS with an elasticity of 2 MPa. Cells cultured on these arrays were monitored using whole-cell patch-clamp whilst a glass probe was used to apply repeated deflections (of differing magnitudes) to an individual pilus directly beneath the cell. Images were obtained of the pilus before and after deflection and images were analyzed off-line to determine the exact deflection for each data point. […] Images were analyzed off-line using Igor software (WaveMetrics, USA). […] A power analysis was used to determine that moderate to strong effects between samples could be detected with a sample size >4. […] For quantitative analysis of mechanosensitivity we measured responses in the most sensitive sub-population of mechanoreceptors, previously defined as Typell mechanoreceptors (Poole et al., 2014).

IC50 ([1]; calculated from concentration dependence, read-out: IC50 on mechanically-activated (Piezo1) currents) [nM] | sensitivity of mechanically gated currents in mechanoreceptors [2] | Structure (SMILES) | sensitivity of mechanosensitive currents to pillar deflection [1] | pre-incubation time for maximal reduction of Piezo1 current amplitudes ([1]; 20 μM OB-1) [h] | Hill coefficient ([1]; Piezo1 current) | pillar deflections at which mechanically-gated currents are significantly inhibited [2]
10 | substantially reduced | CCOC(=O)c1c(-c2ccccc2)oc2ccc(Oc3c([N+](=O)[O-])ncn3C)cc12 [OB-1, Ethyl 5-((1-methyl-4-nitro-1H-imidazol-5-yl)oxy)-2-phenylbenzofuran-3-carboxylate] | reduced | 3 | 0.6 | up to 250 nm
– | substantially reduced | Cc1ccnc(NC(=O)CSc2nnc3c4ccccc4n(Cc4ccccc4)c3n2)c1 [OB-2] | reduced | – | – | less than 50 nm
